According to the NIST ThermoML archive (doi:10.1016/j.jct.2018.08.038):
Numbers after ± are expanded uncertainties.

Details: 101.33 kPa, Liquid, Vibrating tube method

SMILES	mass density (303.15 K) [kg/m3]	mass density (313.15 K) [kg/m3]	mass density (323.15 K) [kg/m3]	mass density (333.15 K) [kg/m3]
CCCC[n+]1ccccc1.O=S(=O)([N-]S(=O)(=O)C(F)(F)F)C(F)(F)F [1-butylpyridinium bis[(trifluoromethyl)sulfonyl]imide]	1449.8 ± 2.1	1440.3 ± 2.1	1431.1 ± 2.1	1421.9 ± 2.1
CCCC[n+]1ccccc1.N#C[N-]C#N [1-butylpyridinium dicyanamide]	1074.8 ± 2	1069.7 ± 2	1064.4 ± 2	1059.5 ± 2
